What was measured:
Type in all cases: cell-based
[1] = test system: ush 3′UTR; experiment: dual-luciferase 3′UTR reporter assay, pAC-ush; conditions: luciferase reporter with ush 3′UTR, drosophila S2 cell lines; average of at least two independent experiments
Protocol: (§1) In order to determine whether the target genes identified in Example 7 are in actuality targets of miR-8 and miR-200 family miRNAs, the inventors performed cloning. In other words, they inserted a luciferase gene into downstream of each target gene's 3′UTR containing the miRNA target sites. Specifically, in order to obtain cDNAs of respective target genes, from drosophila S2 cell lines or human Hela cell lines, total RNA was extracted by using RNeasy mini kit (QIAGEN, US). 1 μg of total RNA and 1 μl of Oligo-dT (Invitrogen, US) were charged with up to 50 μl of distilled water, and placed into SuperScript First-Strand Synthesis System (Invitrogen, US), followed by RT-PCR reaction. Through the reaction at 65° C. for 6 min, at 4° C. for 5 min, at 42° C. for 60 min, at 95° C. for 5 min, and at 4° C. for 5 min, cDNA was synthesized. […]
(§2) Reporter plasmids and renilla luciferase expression vectors (Promega, US), as noted in Table 4, and miRNAs of miR-200 family of miR-141, miR-200a (hsa-miR-200a, SEQ ID: 87: 5′-[…]-3′), miR-200b, miR-200c (has-miR-200c, SEQ ID: 88: 5′-[…]-3′) and miR-429, and miR-8 (dme-miR-8, SEQ ID: 89: 5′-[…]-3′) were bought from Samchonri and cotransfected into drosophila S2 cell lines or human Hela cell lines. Then, the activities of luciferase were measured through dual-luciferase assay (Promega, US) by a luminometer (Biorad). […]

[2] = test system: Lap1 3′UTR; experiment: dual-luciferase 3′UTR reporter assay, pAC-Lap1; conditions: luciferase reporter with Lap1 3′UTR, drosophila S2 cell lines; average of at least two independent experiments
Protocol: as §1, §2

[3] = test system: CG8445 3′UTR; experiment: dual-luciferase 3′UTR reporter assay, pAC-CG8445; conditions: luciferase reporter with CG8445 3′UTR, drosophila S2 cell lines; average of at least two independent experiments
Protocol: as §1, §2

[4] = test system: dbo 3′UTR; experiment: dual-luciferase 3′UTR reporter assay, pAC-dbo; conditions: luciferase reporter with dbo 3′UTR, drosophila S2 cell lines; average of at least two independent experiments
Protocol: as §1, §2

[5] = test system: Lar 3′UTR; experiment: dual-luciferase 3′UTR reporter assay, pAC-Lar; conditions: luciferase reporter with Lar 3′UTR, drosophila S2 cell lines; average of at least two independent experiments
Protocol: as §1, §2

[6] = test system: Ced-12 3′UTR; experiment: dual-luciferase 3′UTR reporter assay, pAC-Ced-12; conditions: luciferase reporter with Ced-12 3′UTR, drosophila S2 cell lines; average of at least two independent experiments
Protocol: as §1, §2

[7] = test system: CG12333 3′UTR; experiment: dual-luciferase 3′UTR reporter assay, pAC-CG12333; conditions: luciferase reporter with CG12333 3′UTR, drosophila S2 cell lines; average of at least two independent experiments
Protocol: as §1, §2

[8] = test system: ebf 3′UTR; experiment: dual-luciferase 3′UTR reporter assay, ebf; conditions: luciferase reporter with ebf 3′UTR, drosophila S2 cell lines; average of at least two independent experiments
Protocol: as §1, §2

Substance: 5′-UAAUACUGUCAGGUAAAGAUGUC-3′ (listed as RNA, chemistry not given here) [miR-8]
- Repression fold, ush [1]: 0.71 fold
- Repression fold, Lap1 [2]: 0.46 fold
- Repression fold, CG8445 [3]: 0.43 fold
- Repression fold, dbo [4]: 0.54 fold
- Repression fold, Lar [5]: 0.42 fold
- Repression fold, Ced-12 [6]: 0.51 fold
- Repression fold, CG12333 [7]: 0.59 fold
- Repression fold, ebf [8]: 0.75 fold

From patent US20130011845A1, “MICRORNA REGULATING THE INSULIN SIGNALING PATHWAY, AND METHOD FOR SCREENING MATERIAL FOR CONTROLLING THE ACTION OF A TARGET THEREOF” (SNU R & DB Foundation, priority 2009, published 2013)
